From US20020052408A1, “Methods for protection of stratified squamous epithelium against injury by noxious substances and novel agents for use therefor” (priority 2000, published 2002)

Experiments:
[1] = tested on: rabbit esophageal epithelium; assay: Ussing chamber method for assessing esophageal epithelial protection against acid injury (60 mM HCl, pH 1.6, decline in electrical resistance R); format: cell-based; conditions: for protective activity, Resistance Index (RI)=[(Ragent/Rcontrol)-1], RI >0.2 considered significant: 2, 4 and/or 8 mM for 15 min, 30 min and/or >30 min before 60 mM HCl pH 1.6 for 1 hour, N=1 tissue/dose, FIG. 9; for protection against acid injury after brief luminal exposure: 1 min exposure to 4 mM agent, multiple washouts over 4 hours, FIG. 5; for lowest protective dose: pH 1.6, 1 hour; for protective effect, single exposure: single 1 min exposure
Source text: Previously, a test system was developed in the Ussing chamber to identify and characterize agents with cytoprotective effects against acid injury to the tissue. Briefly, the esophageal epithelium is mounted in the Ussing chamber so that acid (or acid-pepsin) could be added to the luminal bath while monitoring changes in electrical resistance (R). The changes in R are an effective means to identify damage by acid or acid-pepsin since damage is heralded by an increase in paracellular permeability and this reflected by a decline in R. In effect, the ability of an agent or compound to prevent the acid-induced decline in R without altering luminal pH (which excludes protection being mediated by acid buffering or neutralization) is evidence for a cytoprotective effect, i.e. protection directly exerted by the agent or compound on the epithelium. Further, we previously established that the ability of an agent or compound to prevent the acid-induced decline in R in this Ussing chamber model of acid injury was an accurate predictor, and therefore surrogate marker, of its ability to protect rabbit esophageal epithelium against acid injury in vivo (U.S. Pat. Nos. 5,374,537 and 5,189,056).
(§1) New Zealand white rabbits weighing between 8-9 lbs are sacrificed by administering an intravenous overdose of phenobarbital (60 mg/mL). The esophagus is excised, opened, and pinned mucosal surface down in a paraffin tray containing ice-Cold oxygenated normal Ringer's solution. The submucosa is grasped with hemostats, lifted up, and dissected free of the underlying mucosa with a scalpel. This process yields a sheet of tissue consisting of stratified squamous epithelium and a small amount of underlying connective tissue. From this tissue, four sections are cut and mounted as flat sheets between Lucite half-Chambers with an aperture of 1.13 cm^2 for measurements of potential difference (PD), short circuit current (Isc) and, from these values, calculation of transmucosal electrical resistance (R). Tissues are bathed with normal Ringer solution composed of the following (in mmol/L): Na 140; Cl 119.8; K 5.2; HCO3 25; Ca 1.2; Mg 1.2; HPO4 2.4; H2PO4 0.4; and 268 mOsm/kg water, with pH 7.5 when gassed with 95% O2/5% CO2 at 37° C. Mucosal and serosal solutions are connected to calomel and Ag—AgCl electrodes with Ringer's-agar bridges for measurements of PD and automatic short-Circuiting of the tissue with a voltage clamp (World Precision Instruments Inc., Sarasota, Fla.). Tissues are monitored continuously in the open-circuit state except for 5-10 second periods when the Isc is read. Electrical resistance (R) was calculated using Ohm's Law from the open-circuit PD and Isc.
To test the protective effect of an agent against acid injury to esophageal epithelium, 45 minutes after mounting (equilibration period), tissues paired by R had for one of the pair varying amounts of an agent added to the luminal bath while the other part of the pair received vehicle (normal Ringer solution) as control. After varying periods of exposure to the agent, 60 mM HCl was added to the luminal (mucosal) solution to reduce pH to 1.6; the pH was monitored and maintained throughout the 1 hr of exposure for all tissues to ensure uniform risk of injury. This negated any protective effect as being due to buffering by the agent. In some experiments the power of the protective effect of an agent was determined after varying periods of luminal exposure by washout prior to acid exposure, i.e. replacement of the luminal bath containing agent with normal Ringer Solution that contained only vehicle. R was then monitored before and during acidification with 60 mM HCl and the results for agent and controls presented as percent decline in R from pre-acidification values. […]

[2] = tested on: rabbit esophageal epithelium; assay: In vivo delivery of agent in drinking water, then Ussing chamber acid-pepsin injury test (60 mM HCl, pH 1.6, 1 mg/ml pepsin); conditions: FIG. 12
Protocol: (§2) New Zealand white rabbits weighing between 8-9 lbs were given 25 ml of water containing test agent or water alone (control) to drink once each morning on 4 consecutive days. Following consumption of the 25 ml of water, the rabbits had their normal water source restored and they ate and drank normally for the remainder of each day. Twenty-four hours after the last dose, the rabbits were sacrificed by administering an intravenous overdose of phenobarbital (60 mg/mL). The esophagus was excised and processed as above to test its ability to resist acid injury upon exposure to 60 mM HCl , pH 1.6, for 1 hr. Three sections of rabbit esophageal epithelium that had been exposed to test agent and three sections exposed to water alone (control) were mounted, equilibrated and then simultaneously exposed to acid on the same day without the operator being aware of which were treated and which were control sections of epithelium. Initial R values in all experiments were similar preacidification. […] Significance was taken as a difference in values of p<0.05.
FIG. 12 is a graph showing the protective effect against an acid-pepsin mixture after in vivo delivery of CDDD-1193 in drinking water. A rabbit spontaneously drank 25 ml of water containing 0.6 mg (40 μM) or 0.06 mg (4 μM) CDDD-1193 once-a-day for 4 consecutive days or water alone. On day 5, the rabbits were sacrificed and three sections of esophageal epithelium mounted in Ussing chambers from each rabbit. After equilibration in Ringer solution, all tissues were acidified by luminal addition of 60 mM HCl , pH 1.6, containing 1 mg/ml pepsin, for 1 hour. Electrical resistance, R, was monitored and plotted as percent initial R (%) at the end of 1 hour of acid-pepsin exposure. […] N=3 tissues; * p<0.05 compared to controls.

[3] = tested on: rabbit esophageal epithelium; assay: In vivo delivery of agent in drinking water, then Ussing chamber acid injury test (60 mM HCl, pH 1.6); conditions: for protective effect after in vivo delivery in drinking water: rabbit, acid on day 5
Protocol: as §1, §2

[4] = then 60 mM HCl pH 1.6 for 1 hour
[5] = agent in luminal bath 30 min before and continuously during 60 mM HCl, R as % of initial R, FIG. 1, 2

O=S(=O)([O-])OCC(Oc1ccccc1)c1ccccc1.[Na+] (centres unmarked) [CDDD-1185, 2-Phenoxy-2-phenylethanesulfate, sodium salt]
protective activity, Resistance Index (RI)=[(Ragent/Rcontrol)-1], RI >0.2 considered significant [1]: may have significant protective activity

O=S(=O)(O)OC[C@@H](OS(=O)(=O)O)[C@@H](Oc1ccccc1)c1ccccc1.[Na].[Na] [CDDD-1187, (2R, 3S)-3-Phenoxy-3-phenylpropane-1,2-disulfate, disodium salt]
protective activity, Resistance Index (RI)=[(Ragent/Rcontrol)-1], RI >0.2 considered significant [1]: may have significant protective activity

O=S(=O)([O-])OCC(Oc1ccc(Cl)cc1S(=O)(=O)[O-])c1ccccc1.[Na+].[Na+] (centres unmarked) [CDDD-1188, 2-(4-Chloro-2-sulfophenoxy)-2-phenylethanesulfate, disodium salt]
protective activity, Resistance Index (RI)=[(Ragent/Rcontrol)-1], RI >0.2 considered significant [1]: may have significant protective activity

O=S(=O)(O)OCC(OS(=O)(=O)O)C(Oc1ccccc1)c1ccc(N=C=S)cc1 [CDDD-1192, Disodium (2S, 3R)-3-(4-isothiocyanatophenyl)-3-phenoxypropane-1,2-disulfate]
protection against acid injury after brief luminal exposure [1, 4]: retain significant protection
lowest protective dose ([1]; agent in luminal bath 30 min before and during 60 mM HCl, FIG. 3): 0.004 mM

O=S(=O)(O)OC[C@H](OS(=O)(=O)O)[C@H](Oc1ccc(N=C=S)cc1)c1ccc(N=C=S)cc1.[Na].[Na] [CDDD-1193, Disodium (2S, 3R)-3-(4-isothiocyanophenoxy)-3-(4-isothiocyanatophenyl)propane-1,2-disulfate]
protective effect against acid-pepsin after in vivo delivery in drinking water ([2]; 4 μM (0.06 mg in 25 ml water) once-a-day for 4 days): significantly protective
protective effect against acid-pepsin after in vivo delivery in drinking water ([2]; 40 μM (0.6 mg in 25 ml water) once-a-day for 4 days): significantly protective
duration of protective effect against acid-pepsin after the last dose ([2]; 40 μM and 4 μM in drinking water once-a-day for 4 days): at least 24 hours
protective effect after in vivo delivery in drinking water ([3]; 4 μM (0.06 mg in 25 ml water) once-a-day for 4 days, FIG. 10B): significantly protective
duration of protective effects after the last dose ([3]; 4 μM in drinking water once-a-day for 4 days, FIG. 10B): at least 24 hrs
protective effect after in vivo delivery in drinking water ([3]; 40 μM (0.6 mg in 25 ml water) once-a-day for 4 days, FIG. 10A): significantly protective
duration of protective effects after the last dose ([3]; 40 μM in drinking water once-a-day for 4 days, FIG. 10A): at least 24 hrs
protective effect, repeated exposures ([1]; 400 nM, 1 min every 5 min times ten exposures, then 60 mM HCl pH 1.6 for 1 hour, FIG. 7): protective
protective effect, single exposure ([1]; 400 nM, then 60 mM HCl pH 1.6 for 1 hour, FIG. 7): little protection
protective effect, repeated exposures ([1]; 1 μM, 1 min every 5 min times 5 or ten exposures, then 60 mM HCl pH 1.6 for 1 hour, FIG. 8): cumulative with repeated exposures
protective effect, single exposure ([1]; 1 μM, then 60 mM HCl pH 1.6 for 1 hour, FIG. 8): modestly protective
protection against acid injury after brief luminal exposure [1, 4]: retain significant protection
protective effect after brief luminal exposure ([1]; 1 min exposure to 4 mM, multiple washouts over 8 hours, then 60 mM HCl pH 1.6 for 1 hour, FIG. 6): substantial
persistence of protective effect ([1]; 1 min exposure to 4 mM, repeated washes before 60 mM HCl pH 1.6, FIG. 6): 8 h
lowest protective dose ([1]; agent in luminal bath 30 min before and during 60 mM HCl, FIG. 4): 4e-05 mM

CC(=O)Nc1ccc(C=Cc2ccc(N=C=S)cc2S(=O)(=O)O)c(S(=O)(=O)O)c1 [SITS, 4-acetamido-4′-isothiocyanatostilbene-2-2′-disulfonic acid, reference compound]
protective effect after in vivo delivery in drinking water ([3]; 4 mM (50 mg in 25 ml water) once-a-day for 4 days, FIG. 11): significantly protective
duration of protective effects after the last dose ([3]; 4 mM in drinking water once-a-day for 4 days, FIG. 11): at least 24 hrs
protection against acid injury after brief luminal exposure [1, 4]: retain significant protection
lowest protective dose [1, 5]: 0.1 mM

O=S(=O)(O)OC[C@H]1O[C@@](COS(=O)(=O)O)(O[C@H]2O[C@H](COS(=O)(=O)O)[C@@H](OS(=O)(=O)O)[C@H](OS(=O)(=O)O)[C@H]2OS(=O)(=O)O)[C@@H](OS(=O)(=O)O)[C@@H]1OS(=O)(=O)O [SOS, sucrose octasulfate, reference compound]
protection against acid injury after brief luminal exposure [1, 4]: retain significant protection
lowest protective dose [1, 5]: 1 mM
